Data published in the NIST ThermoML archive (doi:10.1016/j.fluid.2016.02.035).

Assay: mn = molality of the nth substance listed, in mol/kg
Details: 101 kPa, Liquid; for speed of sound: Sing-around technique in a fixed-path interferometer; for mass density: Vibrating tube method

CCCC[N+](CCCC)(CCCC)CCCC.[Br-] [tetrabutylammonium bromide] + O
Details	mass density, 293.15 K [kg/m3]	speed of sound, 293.15 K [m/s]	speed of sound, 298.15 K [m/s]
m1 = 0.0015	998.245	1483.3	1497.3
m1 = 0.0047	998.318	1484.1	1498.2
m1 = 0.0061	998.352	1484.6	1498.6
m1 = 0.013	998.509	1486.1	1500
m1 = 0.0183	998.632	1487.7	1501.4
m1 = 0.026	998.809	1489.5	1503.1
m1 = 0.031	998.934	1490.9	1504.3
m1 = 0.0492	999.359	1495.1	1508.4
m1 = 0.0796	1000.08	1502.6	1515.2
m1 = 0.0997	1000.55	1507.5	1519.7
m1 = 0.1118	1000.85	1510.4	1522.4
m1 = 0.1291	1001.26	1514.5	1526.2
m1 = 0.1464	1001.68	1518.5	1529.9
m1 = 0.1626	1002.06	1522.2	1533.3
m1 = 0.1952	1002.85	1529.5	1540.1
m1 = 0.2309	1003.71	1537.5	1547.3
m1 = 0.2732	1004.73	1546.5	1555.7
m1 = 0.3073	1005.55	1553.8	1562.3
m1 = 0.3449	1006.43	1561.7	1569.5
m1 = 0.5437	1011.1	1599.5	1603.7
m1 = 0.7712	1016.12	1636	1636.3
